Common to all, as to assay type: cell-based
Experiment [1] concerns progerin (mutant lamin A). As to the kind of experiment: Western blot of progerin (mutant lamin A) induced by UVB radiation. As to conditions: 5 μM amentoflavone prior to UVB 100 mJ/cm^2; cultured 6 days; cell extract from subject (FIG. 2). The method, then: (§1) Cells of subjects […] were distributed in a 4-well chamber slide holding a medium prepared by adding 1% LSGS and 100 IU penicillin G to 106 medium at 100,000 cells/well. The cells were divided into a UVB-untreated negative control group, a UVB-treated group and a UVB/amentoflavone-treated group. The next day, the medium was replaced with 106 medium containing 1%
(§2) FBS. The amentoflavone-treated group was treated with 5 μM amentoflavone prior to UVB radiation. 24 hours later, after washing the well with PBS, UVB was irradiated at 100 mJ/cm^2 to the test groups. Then, after treating again with 106 medium containing 1% FBS, the cells were cultured at 37° C. for 6 days. The treated cells were subjected to western blot and immunofluorescence staining. For western blot, the cells were lysed using RIPA buffer (Sigma) and proteins were quantitated according to the Lowry's method. 10 μg of each protein was run on 4-12% Nupage gel (Invitrogen) and then transferred to NC membrane. The membrane was blocked with 5% BSA and reacted O/N at 4° C. with the lamin A mutant antibodies, progerin (Abcam) and p-H2AX (Millipore), diluted at 1:300 and 1:200, respectively, with 5% BSA. […] Then, after washing 3 times for 10 minutes with PBST, bands were detected using ECL and LAS3000.

Another experiment has as its system phosphorylated H2AX. As to the kind of experiment: Immunofluorescence staining of phosphorylated H2AX after UVB radiation. The settings on record: 5 μM amentoflavone prior to UVB 100 mJ/cm^2; cultured 6 days; cells of the subject (FIG. 3). The method, then:
as §1
as §2, with “LAS3000. […]” for “LAS3000.”

In another experiment the test system is cells of the subject. As to the kind of experiment: Immunofluorescence staining of lamin A: nuclear damage after UVB radiation. The settings on record: 5 μM amentoflavone prior to UVB 100 mJ/cm^2; cultured 6 days; cells of the subject (FIG. 3). The method, then:
as §1
as §2, with “LAS3000. […]” for “LAS3000.”

The structures appear in SMILES notation.

`O=c1cc(-c2ccc(O)c(-c3c(O)cc(O)c4c(=O)cc(-c5ccc(O)cc5)oc34)c2)oc2cc(O)cc(O)c12` [Amentoflavone]: in experiment [1], the “UVB-induced increase of progerin (mutant lamin A), western blot” value is given as “decreased”. Also, the “expression of phosphorylated H2AX, immunofluorescence” value in the experiment on phosphorylated H2AX is “reduced”. Also, in the experiment with cells of the subject, the “structure of the cell nucleus (nuclear damage caused by lamin A defects), immunofluorescence” value is reported as “retained”.

Values taken from patent US20120022151A1, “METHOD FOR PREVENTING DAMAGE TO NUCLEAR MEMBRANE OF SKIN CELL BY ADMINISTERING AMENTOFLAVONE” (Amorepacific Corporation, priority 2010, published 2012).
